Test results: patent EP0696280B1, “SUBSTITUTED PYRROLIDIN-3-YL-ALKYL-PIPERIDINES USEFUL AS TACHYKININ ANTAGONISTS” (MERRELL PHARMACEUTICALS INC., priority 1993, dated 1994)
Structures can show the parent of a compound that is named as a salt. Where two headings read alike, the source gives them in different places.

Experiments:
NK-3 receptor = molecular target: T1, NK-3 receptor (Cavia porcellus, UniProt P30098); assay: Antagonism of iodinated tachykinin binding to NK-3 receptor (125I-Bolton Hunter labeled Lys-4 eledoisin, guinea pig cerebral cortex membranes)
T1 construct: freshly collected guinea pig cerebral cortex; from tissue; host or cells: guinea pig cerebral cortex membranes
T1 sequence (P30098 1-440): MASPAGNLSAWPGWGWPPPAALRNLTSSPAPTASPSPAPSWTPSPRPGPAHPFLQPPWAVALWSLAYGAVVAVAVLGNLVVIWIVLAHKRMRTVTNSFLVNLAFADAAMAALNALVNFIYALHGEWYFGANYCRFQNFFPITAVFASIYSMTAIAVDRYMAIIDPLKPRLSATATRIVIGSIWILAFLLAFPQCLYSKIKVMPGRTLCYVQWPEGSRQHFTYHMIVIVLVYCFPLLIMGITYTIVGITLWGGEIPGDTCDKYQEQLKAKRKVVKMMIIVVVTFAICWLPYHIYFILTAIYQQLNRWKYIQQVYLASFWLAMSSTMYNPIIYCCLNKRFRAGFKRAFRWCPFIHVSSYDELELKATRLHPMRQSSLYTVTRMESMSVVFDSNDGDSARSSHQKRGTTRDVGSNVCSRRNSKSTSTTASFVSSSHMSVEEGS
Method: (§1) The NK1 receptor affinity of proposed tachykinin antagonists was devaluated in guinea pig lungs (Keystone Biologicals, Cleveland, OH), affinity for the NK2 receptor evaluated in HSKR-1 cells (which are mouse 3T3 fibroblasts expressing the human jejunal NK2 receptor) and NK-3 receptor affinity was evaluated in freshly collected guinea pig cerebral cortex. Tissues or cells were homogenized with a Polytron in 15 volumes of 50 mM Tris-HCl buffer (pH 7.4, 4°C) and centrifuged. The pellet was resuspended in Tris-HCl buffer and was centrifuged; the pellet was washed twice by resuspension. The final pellet was resuspended at a concentration of 40 mg/ml for tissues (guinea pig lung and cerebral cortex) and 20 mg/ml for cells in incubation buffer and remained at room temperature for at least 15 min prior to use. Receptor binding was initiated by addition of 250 µl membrane preparation in duplicate to 0.1 nM of the following radioligands: ^125I-Bolton Hunter Lys-3 labeled substance P; ^125iodohistidyl-1-neurokinin A; and ^125I-Bolton Hunter labeled Lys-4 eledoisin in a final volume of 500 µl of buffer containing 50 mM Tris-HCl (pH 7.4 at room temperature), 0.1% bovine serum albumin, 2 mM MnCl2, 40 µg/ml bacitracin, 4 µg/ml leupeptin and chymostatin, 1 µM thiorphan and various doses of the putative tachykinin antagonists. Incubations were performed at room temperature for 90 min (NK1 receptor assays) or 2 hr (NK2 and NK3 receptor assays); binding was terminated by addition of 50 mM Tris-HCl buffer (pH 7.4, 4°C) and filtration under vacuum through GF/B filters presoaked with 0.1% polyethyleneimine (NK1 receptor assays) or 0.5% bovine serum albumin (NK2 and NK3 receptor assays). Filter bound radioactivity was quantitated in a gamma counter. Nonspecific binding was defined as binding in the presence of 1 µM substance P, neurokinin A, or eledoisin. Specific binding was calculated by subtracting nonspecific binding from total binding. Competition of iodinated SP, NKA, or eledoisin binding by test compounds or standards was expressed as a percentage of this maximum competition. IC50 values (concentration required to inhibit 50% of receptor binding) were generated for each of the test compounds by nonlinear regression using an iterative curve fitting program (GraphPAD Inplot, San Diego, CA).

[1] = molecular target: T2, human jejunal NK2 receptor (Homo sapiens, UniProt P21452); assay: Antagonism of iodinated tachykinin binding to NK2 receptor (125iodohistidyl-1-neurokinin A, HSKR-1 cell membranes)
T2 construct: expressed in transfected cells; host or cells: HSKR-1 cells (mouse 3T3 fibroblasts)
T2 sequence (P21452 1-398): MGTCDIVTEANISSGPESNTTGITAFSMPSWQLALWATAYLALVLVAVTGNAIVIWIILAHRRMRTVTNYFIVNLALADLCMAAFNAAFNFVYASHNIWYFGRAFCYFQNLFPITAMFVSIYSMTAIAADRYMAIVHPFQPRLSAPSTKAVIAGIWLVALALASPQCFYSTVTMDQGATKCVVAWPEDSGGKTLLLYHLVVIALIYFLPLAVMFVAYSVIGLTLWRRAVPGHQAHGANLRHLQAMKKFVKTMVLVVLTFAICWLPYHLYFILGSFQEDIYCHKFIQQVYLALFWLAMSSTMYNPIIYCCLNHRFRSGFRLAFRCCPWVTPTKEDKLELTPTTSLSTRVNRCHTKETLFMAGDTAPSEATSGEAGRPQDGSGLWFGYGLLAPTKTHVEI
Method: as §1

[2] = system: NKA-induced respiratory effects; assay: Antagonism of NKA aerosol induced respiratory effects in conscious guinea pigs (whole body plethysmography); type: in vivo, guinea pig; details: 20 min prior to NKA aerosol (0.05%); for DYSPNEA ONSET: mean and SEM
Method: (§2) In vivo experiments were performed using male Duncan Hartley guinea pigs (250-350g). Changes in conscious breathing patterns were monitored in four animals simultaneously using modified whole body plethysmography consisting of four small plexiglass boxes each connected to a reference box via Validyne DP 45-16 differential pressure transducers. The 4 boxes were equipped with an air supply line (also used for aerosol delivery) and an exhaust air line. Supply and exhaust lines were of the same length and narrow bore and arose from a common supply chamber and vented to a common exhaust chamber. This system was used to ensure that fluctuations in supply air and atmospheric pressure would remain in phase and be eliminated from the net signal by the differential pressure transducers. The analog pressure signals were digitalized via a Data Translation DT2821 A to D board. Data were collected at a rate of 100 samples/second/animal. Each cycle of pressure change was analyzed using the following parameters: rising and falling slope determined between minimum and maximum pressures, the ratio of rising over falling slope, and the magnitude of the change between initial trough pressure and peak cycle pressure. Using these values (and observing the animals) the pressure cycles were characterized into normal breaths, forced exhalations (apparent by abdominal heaving), significant respiratory events (SREs; usually coughs, less often sneezes or gasps which were characterized by transient, extremely large pressure increases which were distinguishable from noise) and movement/noise with a PCAT 286 running a System V UNIX operating system. Dyspnea was defined as a significant, sustained increase in plethysmograph pressure which was associated with an observable shift to labored breathing in the animal.
(§3) During the course of a typical experiment in which airway responsiveness to various bronchoconstricting agents was examined, aerosols were delivered for 19 min (0.33 ml/min) using a DeVilbiss Ultraneb 99 ultrasonic nebulizer and animals monitored during this time. Prior to nebulization, 1 min of resting breathing was collected to establish a baseline pressure. […] The vehicle for nebulization of all bronchoconstrictive agents was phosphate buffered saline (pH 7.4) which elicited no respiratory effects itself. Putative tachykinin antagonists were administered either (i.v.) 20 min prior to onset of aerosol exposure or orally 1 hour prior to onset (to guinea pigs after an overnight fast).
Table 6 illustrates the effects of the compounds of Example 3; Example 20A; and Example 5A on respiratory effects induced by NKA aerosol. […] These effects were dose dependent i.e. the higher the dose of compound, the greater attenuation of NKA-mediated effects. […]
Compounds were administered 20 min prior to initiation of NKA aerosol (0.05%). Values for each treatment represent the mean and SEM of data from 5-37 animals per dose.

[3] = system: capsaicin-induced respiratory effects; assay: Antagonism of capsaicin aerosol induced respiratory effects in conscious guinea pigs (whole body plethysmography); type: in vivo, guinea pig; details: for DYSPNEA ONSET / MAXIMUM PRESSURE INCREASE (mmH2O) / SRE NUMBER*: mean and SEM; for SRE NUMBER*: number of coughs/gasps during 19 min exposure
Method: as §2, §3
Capsaicin aerosol is known to promote release of the tachykinins SP and NKA from sensory nerves in the airways of guinea pigs which may then act upon NK1 and NK2 receptors, respectively to elicit respiratory effects. […]
(§4) Values are mean and SEM of data derived from number of animals indicated in parenthesis. Putative tachykinin antagonists were administered intravenously 20 min prior to initiation of capsaicin aerosol (0.001%). *SRE number indicates the number of coughs/gasps which occurred during the 19 min capsaicin exposure period.
as §4, with “by oral gavage 1 hr” for “intravenously 20 min”

NK1 receptor = molecular target: T3, NK1 receptor (Cavia porcellus, UniProt P30547); assay: Antagonism of iodinated tachykinin binding to NK1 receptor (125I-Bolton Hunter Lys-3 labeled substance P, guinea pig lung membranes)
T3 construct: Tissues or cells were homogenized with a Polytron in 15 volumes of 50 mM Tris-HCl buffer; tissue Keystone Biologicals, Cleveland, OH; host or cells: guinea pig lung membranes
T3 sequence (P30547 whole entry): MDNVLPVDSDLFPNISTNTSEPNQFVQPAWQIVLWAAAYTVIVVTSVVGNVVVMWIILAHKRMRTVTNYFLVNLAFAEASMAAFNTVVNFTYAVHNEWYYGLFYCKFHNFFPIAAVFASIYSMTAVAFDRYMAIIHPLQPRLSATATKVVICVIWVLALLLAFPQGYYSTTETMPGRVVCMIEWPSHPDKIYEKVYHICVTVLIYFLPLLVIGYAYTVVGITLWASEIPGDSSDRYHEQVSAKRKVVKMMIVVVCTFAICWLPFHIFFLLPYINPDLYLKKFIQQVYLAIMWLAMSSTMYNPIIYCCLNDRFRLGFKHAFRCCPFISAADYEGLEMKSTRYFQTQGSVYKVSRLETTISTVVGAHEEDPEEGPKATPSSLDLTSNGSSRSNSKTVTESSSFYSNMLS
Method: as §1

[4] = HSKR-1 cells (mouse 3T3 fibroblasts expressing human jejunal NK2 receptor), mean of several experiments, read-out: NK-2 IC50
[5] = 1 mg/kg intravenously 20 min prior to capsaicin aerosol (0.001%)
[6] = 2.5 mg/kg intravenously 20 min prior to capsaicin aerosol (0.001%)
[7] = 5 mg/kg intravenously 20 min prior to capsaicin aerosol (0.001%)
[8] = 10 mg/kg intravenously 20 min prior to capsaicin aerosol (0.001%)
[9] = guinea pig lungs, mean of several experiments, read-out: NK-1 IC50

COc1ccccc1CC(=O)N1CCC(CCN2CCC(C(N)=O)(c3ccccc3)CC2)(c2ccc(Cl)c(Cl)c2)C1 (centres unmarked) [Example 4, 1-(2-[3-(3,4-dichloro-phenyl)-1-[2-(2-methoxy-phenyl)-acetyl]-pyrrolidin-3-yl]-ethyl)-4-phenyl-piperidine-4-carboxylic acid amide]
IC50 (NK-3 receptor): 41 nM
IC50 [1, 4]: 74 nM

COc1cc(C(=O)N2CCC(CCN3CCC(C(N)=O)(c4ccccc4)CC3)(c3ccc(Cl)c(Cl)c3)C2)cc(OC)c1OC.Cl (single isomer, unassigned; (+)) [Example 20A, (+)-1-[2-[3-(3,4-dichloro-phenyl)-1-(3,4,5-trimethoxy-benzoyl)-pyrrolidin-3-yl] -ethyl]-4-phenyl-piperidine-4-carboxylic acid amide hydrochloride]
DYSPNEA INCIDENCE ([2]; 1 mg/kg): 100% (10/10)
DYSPNEA ONSET ([2]; 1 mg/kg): 451 ± 30 s
DYSPNEA INCIDENCE ([2]; 5 mg/kg): 90% (9/10)
DYSPNEA ONSET ([2]; 5 mg/kg): 706 ± 82 s
DYSPNEA INCIDENCE ([2]; 10 mg/kg): 70% (7/10)
DYSPNEA ONSET ([2]; 10 mg/kg): 829 ± 105 s
DYSPNEA INCIDENCE [3, 5]: 77.8% (7/9)
DYSPNEA ONSET [3, 5]: 331 ± 22 s
MAXIMUM PRESSURE INCREASE (mmH2O) [3, 5]: 1.0 ± 0.1 mmH2O
SRE NUMBER* [3, 5]: 9.9 ± 2.7
DYSPNEA INCIDENCE [3, 6]: 100% (10/10)
DYSPNEA ONSET [3, 6]: 426 ± 57 s
MAXIMUM PRESSURE INCREASE (mmH2O) [3, 6]: 0.6 ± 0.1 mmH2O
SRE NUMBER* [3, 6]: 8.3 ± 1.6
DYSPNEA INCIDENCE [3, 7]: 44.4% (4/9)
DYSPNEA ONSET [3, 7]: 597 ± 186 s
MAXIMUM PRESSURE INCREASE (mmH2O) [3, 7]: 0.8 ± 0.06 mmH2O
SRE NUMBER* [3, 7]: 4.4 ± 1.9
DYSPNEA INCIDENCE [3, 8]: 55.6% (5/9)
DYSPNEA ONSET [3, 8]: 592 ± 71 s
MAXIMUM PRESSURE INCREASE (mmH2O) [3, 8]: 0.8 ± 0.1 mmH2O
SRE NUMBER* [3, 8]: 3.3 ± 1.1

COc1cc(C(=O)N2CCC(CCN3CCC(C(N)=O)(c4ccccc4)CC3)(c3ccccc3)C2)cc(OC)c1OC (centres unmarked) [Example 22A, 1-[2-[3-phenyl-1-(3,4,5-trimethoxy-benzoyl)-pyrrolidin-3-yl]-ethyl]-4-phenyl-piperidine-4-carboxylic acid amide hydrochloride]
IC50 [1]: 1190 nM
IC50 (NK1 receptor): 17.4 nM

NC(=O)C1(c2ccccc2)CCN(CCC2(c3ccc4ccccc4c3)CCN(C(=O)c3ccccc3)C2)CC1 (racemic) [Example 8, 1-[2-(1-benzoyl-3-napthalen-2-yl-pyrrolidin-3-yl)-ethyl]-4-phenyl-piperidine-4-carboxylic acid amide]
IC50 [1, 4]: 94 nM
IC50 (NK1 receptor; [9]): 1480 nM

COC(=O)CC[C@H](NC(=O)C1(c2ccccc2)CCN(CCC2(c3ccc(Cl)c(Cl)c3)CCN(C(=O)c3ccccc3)C2)CC1)C(=O)OC (some centres unmarked) [Example 6]
IC50 [1]: 15 nM
IC50 (NK1 receptor; [9]): 182 nM

NC(=O)C1(c2ccccc2)CCN(CCC2(c3ccc4ccccc4c3)CC(=O)N(Cc3ccccc3)C2)CC1 (racemic) [Example 12]
IC50 [1, 4]: 179 nM
IC50 (NK1 receptor; [9]): 810 nM

COc1ccc(C2(CCN3CCC(C(N)=O)(c4ccccc4)CC3)CCN(C(=O)c3cc(OC)c(OC)c(OC)c3)C2)cc1OC (centres unmarked) [Example 23, 1-[2-[3-(3,4-dimethoxy-phenyl)-1-(3,4,5-trimethoxy-benzoyl)-pyrrolidin-3-yl]-ethyl]-4-phenyl-piperidine-4-carboxylic acid amide]
IC50 [1, 4]: 2680 nM
IC50 (NK1 receptor): 20 nM

COc1ccccc1C(=O)N1CCC(CCN2CCC(C(N)=O)(c3ccccc3)CC2)(c2ccc(Cl)c(Cl)c2)C1 (centres unmarked) [Example 13, 1-[2-[3-(3,4-dichloro-phenyl)-1-(2-methoxy-benzoyl)-pyrrolidin-3-yl]-ethyl]-4-phenyl-piperidine-4-carboxylic acid amide]
IC50 [1, 4]: 14 nM
